These results are taken from patent US12600725B2 (Memorial Sloan-Kettering Cancer Center, priority 2013, dated 2026).

Assay [1] deals with Hsp90α (Homo sapiens, UniProt P07900). In words: biochemical. The following applies: FP competition, 6 nM Cy3B-GM, 10 nM protein, 4° C. for 24 h.
In assay [2] the target is Grp94 (Canis lupus familiaris, UniProt P41148). Conditions: read-out: Grp94; FP competition, 6 nM Cy3B-GM, 10 nM protein, 4° C. for 24 h.

Some results are limits rather than exact numbers.

Sequence of Grp94 (P41148 with tags, fused parts or gaps DELINS287-327GGGG): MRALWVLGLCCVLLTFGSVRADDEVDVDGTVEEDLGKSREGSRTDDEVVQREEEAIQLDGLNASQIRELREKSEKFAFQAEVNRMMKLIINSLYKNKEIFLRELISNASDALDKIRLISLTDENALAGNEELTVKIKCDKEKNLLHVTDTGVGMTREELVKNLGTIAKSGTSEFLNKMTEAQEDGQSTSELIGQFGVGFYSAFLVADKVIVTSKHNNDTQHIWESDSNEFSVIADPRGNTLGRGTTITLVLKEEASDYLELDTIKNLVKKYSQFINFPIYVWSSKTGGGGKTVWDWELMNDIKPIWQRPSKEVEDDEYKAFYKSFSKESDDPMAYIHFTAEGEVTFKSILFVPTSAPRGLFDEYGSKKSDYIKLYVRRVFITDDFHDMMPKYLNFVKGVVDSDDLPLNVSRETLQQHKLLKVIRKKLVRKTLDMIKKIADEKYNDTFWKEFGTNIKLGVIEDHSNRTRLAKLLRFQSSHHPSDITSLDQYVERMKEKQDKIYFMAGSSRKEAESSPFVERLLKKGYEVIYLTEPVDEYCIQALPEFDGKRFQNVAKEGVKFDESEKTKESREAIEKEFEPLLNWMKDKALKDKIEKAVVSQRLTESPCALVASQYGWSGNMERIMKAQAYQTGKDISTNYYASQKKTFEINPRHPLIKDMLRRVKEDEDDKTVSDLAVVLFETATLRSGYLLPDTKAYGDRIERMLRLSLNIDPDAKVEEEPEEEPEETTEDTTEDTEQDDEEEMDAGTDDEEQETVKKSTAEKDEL

For the compound `Cc1ccc(Sc2nc3c(N)ncn(CCCNC(C)C)c-3n2)c(C)c1` [WS-11, 8-((2,4-Dimethylphenyl)thio)-3-(3-(isopropylamino)propyl)-3H-purin-6-amine], the results for the IC50 in assay [1] and in assay [2] were more than 100 µM and 25 µM, respectively.
For `CC(C)NCCCn1c(Sc2ccc(Cl)cc2[N+](=O)[O-])nc2c(N)ncnc21` [HJP-VI-32, 8-((4-chloro-2-nitrophenyl)thio)-9-(3-(isopropylamino)propyl)-9H-purin-6-amine] the same measures were 14.2 µM and more than 5 µM.
In the same order, the values of `CC(CO)NCCn1c(Sc2ccc(Cl)cc2Cl)nc2c(N)ncnc21` (stereo not drawn) [HJP-V-86, 2-((2-(6-Amino-8-((2,4-dichlorophenyl)thio)-9H-purin-9-yl)ethyl)amino)propan-1-ol] are 7.6 µM and 0.21 µM.
For `CC(C)NCCCn1c(Sc2cc(Cl)cc(-c3cccc([N+](=O)[O-])c3)c2)nc2c(N)ncnc21` [HJP-VI-8, 8-((5-chloro-3′-nitro-[1,1′-biphenyl]-3-yl)thio)-9-(3-(isopropylamino)propyl)-9H-purin-6-amine] the same measures were 47.3 µM and 0.58 µM.
Take `CC(C)NCCCn1c(Sc2cc(Cl)cc(Cl)c2)nc2c(N)nccc21` [SO-III-154, 2-((3,5-dichlorophenyl)thio)-1-(3-(isopropylamino)propyl)-1H-imidazo[4,5-c]pyridin-4-amine]: the IC50 was more than 50 µM in assay [1] and 2.59 µM in assay [2].
Take `C#CCCCn1cnc(N)c2nc(Sc3cc(Cl)cc4c(Cl)ccnc34)nc1-2` [PDP-I-79-N3]: the IC50 was more than 50 µM in assay [1] and more than 5 µM in assay [2].
In the same order, the values of `Nc1ncnc2c1nc(Sc1cc(Cl)cc(I)c1)n2CCc1cccnc1` [HJP-V-147, 8-((3-chloro-5-iodophenyl)thio)-9-(2-(pyridin-3-yl)ethyl)-9H-purin-6-amine] are 72.5 µM and 0.86 µM.
In the same order, the values of `C#CCCn1cnc(N)c2nc(Sc3cc(Cl)cc(Cl)c3)nc1-2` [PDP-I-14-N3, 3-(But-3-yn-1-yl)-8-((3,5-dichlorophenyl)thio)-3H-purin-6-amine] are more than 50 µM and more than 5 µM.
For `CC(C)NCCCn1c(Sc2cc(Cl)cc(-c3cccc(C(F)(F)F)c3)c2)nc2c(N)ncnc21` [HJP-VI-9, 8-((5-chloro-3′-(trifluoromethyl)-[1,1′-biphenyl]-3-yl)thio)-9-(3-(isopropylamino)propyl)-9H-purin-6-amine] the same measures were 13.8 µM and 0.26 µM.
As for `C#CCCCn1c(Cc2cccc(Cl)c2Cl)nc2c(N)ncnc21` [HJP-V-55, 8-(2,3-Dichlorobenzyl)-9-(pent-4-yn-1-yl)-9H-purin-6-amine], the IC50 in assay [1] was more than 10 µM.
Turning to `C#CCCCn1cnc(N)c2nc(Sc3cc(Cl)cc(Cl)c3)nc1-2` [PU-H41], the IC50 in assay [1] was more than 100 µM.
As to `CC(C)NCCCn1c(Sc2cc(Cl)cc(-c3ccco3)c2)nc2c(N)ncnc21` [HJP-VI-30, 8-((3-chloro-5-(furan-2-yl)phenyl)thio)-9-(3-(isopropylamino)propyl)-9H-purin-6-amine], the IC50 in assay [1] came to 16.7 µM; in assay [2], 0.32 µM.
Consider `C/C=C(\C)c1cc(Cl)cc(Sc2nc3c(N)ncnc3n2CCCNC(C)C)c1` [HJP-VI-79, (E)-8-((3-(but-2-en-2-yl)-5-chlorophenyl)thio)-9-(3-(isopropylamino)propyl)-9H-purin-6-amine], for which, in assay [2], the IC50 turned out to be 0.124 µM.
Turning to `C#CCCCn1c(Cc2c(C)cc(C)cc2C)nc2c(N)ncnc21` [HJP-V-36, 9-(Pent-4-yn-1-yl)-8-(2,4,6-trimethylbenzyl)-9H-purin-6-amine], the IC50 in assay [1] was more than 10 µM; in assay [2] it was more than 5 µM.
In the same order, the values of `Nc1ncnc2c1nc(Sc1cc(Cl)cc(Cl)c1)n2CCc1cccnc1` [HJP-V-140, 8-((3,5-dichlorophenyl)thio)-9-(2-(pyridin-3-yl)ethyl)-9H-purin-6-amine] are more than 50 µM and 7.9 µM.
In the same order, the values of `Nc1ncnc2c1nc(Sc1ccc(Cl)cc1Cl)n2CCc1cccnc1` [HJP-V-116, 8-((2,4-Dichlorophenyl)thio)-9-(2-(pyridin-3-yl)ethyl)-9H-purin-6-amine] are more than 50 µM and 0.12 to 0.3 µM.
In the same order, the values of `CC(O)CNCCn1c(Sc2ccc(Cl)cc2Cl)nc2c(N)ncnc21` (stereo not drawn) [HJP-V-82, 1-((2-(6-Amino-8-((2,4-dichlorophenyl)thio)-9H-purin-9-yl)ethyl)amino)propan-2-ol] are 31.3 µM and 0.23 µM.
With `C#CCC(CC)n1c(Sc2ccc(Cl)cc2Cl)nc2c(N)ncnc21` (stereo not drawn) [HJP-V-117, 8-((2,4-dichlorophenyl)thio)-9-(hex-5-yn-3-yl)-9H-purin-6-amine], the IC50 in assay [2] was found to be 0.92 µM.
Turning to `COC(C)CNCCn1c(Sc2cc(Cl)cc(Cl)c2)nc2c(N)ncnc21` (stereo not drawn) [SO-III-75A, 8-((3,5-dichlorophenyl)thio)-9-(2-((2-methoxypropyl)amino)ethyl)-9H-purin-6-amine], the IC50 in assay [1] turned out to be 39.9 µM; in assay [2] it was 0.89 µM.
As to `C#CCCCn1c(Sc2cc(Br)cc3ccn(Cc4ccc(OC)cc4)c23)nc2c(N)ncnc21` [PDP-I-55-N9], the IC50 is more than 50 µM in assay [1] and more than 5 µM in assay [2].
Take `C#CCCCn1cnc(N)c2nc(Sc3ccc(Cl)c4ccccc34)nc1-2` [PDP-I-77-N3]: the IC50 was more than 50 µM in assay [1] and more than 5 µM in assay [2].
With `CC(C)NCCCn1c(Sc2ccc(Cl)cc2N)nc2c(N)ncnc21` [HJP-VI-34, 8-((2-amino-4-chlorophenyl)thio)-9-(3-(isopropylamino)propyl)-9H-purin-6-amine], in assay [1], the IC50 is more than 50 µM.
With `CC(C)NCCCn1c(Sc2cc(C(F)(F)F)cc(C(F)(F)F)c2)nc2c(N)ncnc21` [WS-14, 8-((3,5-Bis(trifluoromethyl)phenyl)thio)-9-(3-(isopropylamino)propyl)-9H-purin-6-amine], the IC50 in assay [1] was determined as 8.56 µM; in assay [2], 2.43 µM.
In the same order, the values of `Nc1ncn(CCCC(F)(F)F)c2nc(Sc3cc(Cl)cc(Cl)c3)nc1-2` are more than 50 µM and more than 10 µM.
In the case of `Nc1ncnc2c1nc(Sc1cc(Cl)cc(Cl)c1)n2CCCn1ccnc1` [SO-III-103A, 9-(3-(1H-imidazol-1-yl)propyl)-8-((3,5-dichlorophenyl)thio)-9H-purin-6-amine], the IC50 in assay [1] was more than 10 µM; in assay [2] it was 0.203 µM.
In the same order, the values of `C#CCN(CCO)CCCn1c(Sc2cc(Cl)cc(Cl)c2)nc2c(N)ncnc21` [HJP-V-132, 2-((3-(6-amino-8-((3,5-dichlorophenyl)thio)-9H-purin-9-yl)propyl)(prop-2-yn-1-yl)amino)ethanol] are 26.6 µM and 0.81 µM.
In the same order, the values of `C#CCCCn1c(S(=O)(=O)c2ccc(Cl)cc2Cl)nc2c(N)ncnc21` [HJP-V-62T, 8-((2,4-Dichlorophenyl)sulfonyl)-9-(pent-4-yn-1-yl)-9H-purin-6-amine] are more than 25 µM and 4.7 µM.
In the same order, the values of `C#CCCCn1c(Sc2ccc(C#N)c(Cl)c2)nc2c(N)ncnc21` [HJP-III-33, 4-((6-Amino-9-(pent-4-yn-1-yl)-9H-purin-8-yl)thio)-2-chlorobenzonitrile] are 7.6 µM and 3.45 µM.
Regarding `C#CCCCn1cnc(N)c2nc(Sc3cn(Cc4ccc(OC)cc4)c4ncc(Br)cc34)nc1-2` [PDP-I-58-N3], the IC50 was more than 50 µM in assay [1] and more than 10 µM in assay [2].
In the same order, the values of `CC(C)=C(C)c1cc(Cl)cc(Sc2nc3c(N)ncnc3n2CCCNC(C)C)c1` [HJP-VI-14, 8-((3-chloro-5-(3-methylbut-2-en-2-yl)phenyl)thio)-9-(3-(isopropylamino)propyl)-9H-purin-6-amine] are more than 50 µM and 0.16 µM.
Turning to `COc1ccc(-c2cc(Cl)cc(Sc3nc4c(N)ncnc4n3CCCNC(C)C)c2)cc1` [HJP-VI-3, 8-((5-chloro-4′-methoxy-[1,1′-biphenyl]-3-yl)thio)-9-(3-(isopropylamino)propyl)-9H-purin-6-amine], the results for the IC50 in assay [1] and in assay [2] were more than 25 µM and 2.7 µM, respectively.
As to `CC(C)NCCCn1c(Sc2cc(Cl)cc(-c3cccs3)c2)nc2c(N)ncnc21` [HJP-VI-10, 8-((3-chloro-5-(thiophen-2-yl)phenyl)thio)-9-(3-(isopropylamino)propyl)-9H-purin-6-amine], the IC50 in assay [1] was determined as 7.9 µM; in assay [2] it was 0.16 µM.
In the same order, the values of `C#CCCCn1c(Sc2ccc(Cl)cc2)nc2c(N)ncnc21` [PU-H7] are more than 100 µM and 1.5 ± 0.2 µM.
Regarding `C#CCCCn1c(Sc2ccc(-n3cccc3)cc2)nc2c(N)ncnc21` [PDP-I-51-N9], the IC50 in assay [1] is more than 50 µM; in assay [2], more than 10 µM.
`CC(C)NCCCn1c(Sc2ccc(F)cc2Cl)nc2c(N)ncnc21` [HJP-VI-25, 8-((2-chloro-4-fluorophenyl)thio)-9-(3-(isopropylamino)propyl)-9H-purin-6-amine] showed an IC50 in assay [1] of more than 50 µM.
Same read-out and setting: in the case of `C#CCCCn1c(C(=O)c2cc(Cl)cc(Cl)c2)nc2c(N)ncnc21` [HJP-V-39T, (6-Amino-9-(pent-4-yn-1-yl)-9H-purin-8-yl)(3,5-dichlorophenyl)methanone] it was more than 10 µM; in that of `CC#Cc1cc(Cl)cc(Sc2nc3c(N)ncnc3n2CCCNC(C)C)c1` [HJP-VI-50, 8-((3-chloro-5-(prop-1-yn-1-yl)phenyl)thio)-9-(3-(isopropylamino)propyl)-9H-purin-6-amine], more than 50 µM.
On the same count and under the same terms, next, `C#CCCCn1c(Sc2cc(C#N)cc(C#N)c2)nc2c(N)ncnc21` [HJP-III-26, 5-((6-Amino-9-(pent-4-yn-1-yl)-9H-purin-8-yl)thio)isophthalonitrile]: 60.3 µM.
For the compound `CC(C)NCCCn1c(Sc2cc(Cl)cc(Cl)c2I)nc2c(N)ncnc21` [HJP-V-145], in assay [2], the IC50 turned out to be 0.68 µM.
For the compound `CC(C)NCCCn1c(Sc2cc(Cl)cc(Cl)c2)nc2c(N)nc(F)nc21` [HJP-VI-69, 8-((3,5-dichlorophenyl)thio)-2-fluoro-9-(3-(isopropylamino)propyl)-9H-purin-6-amine], the IC50 in assay [2] was 0.135 µM.
